Source: article PMC11423305, “Structure-Based Design of CBP/EP300 Degraders: When Cooperativity Overcomes Affinity” (JACS Au, 2024)

Biological target: T1, CBP-BRD:CRBN thalidomide binding domain ternary complex (Homo sapiens, UniProt Q92793+Q96SW2)
T1 construct: GST-CBP (human, residues 1081-1197); the C-terminus of CRBN (human, residues 318-442); His6 with TEV cleavage site (N, cleaved yes); made in house; host or cells: Rosetta (DE3) cells (E. coli)
Test: TR-FRET CBP-BRD:PROTAC:CRBN ternary complex formation
Procedure: (PMSF), and 1 mM EDTA) and lysed by sonication. The lysates were clarified by centrifugation (18,000 rpm, 4 °C, 1 h).
For GST-CBP the soluble proteins were loaded onto a column packed with glutathione sepharose 4B (GE Healthcare) and subsequently eluted with 10 mM reduced glutathione in buffer containing 20 mM Tris-HCl pH 8.0, and 150 mM NaCl. Finally, a size exclusion step (HiLoad 16/600 Superdex 200 pg column from GE Healthcare) was used to further purify the protein in buffer containing 50 mM HEPES pH 7.5 and 150 mM NaCl. For His-CRBN and His-CRBN-Avi(biotin), the soluble fractions were loaded onto the HisTrap FF crude column (GE Healthcare) and washed with lysis buffer supplemented with 50 mM imidazole. The proteins were eluted with a buffer containing 250 mM imidazole, 100 mM Tris-HCl pH 8.0 and 500 mM NaCl. For His-CRBN-Avi(biotin) only, recombinant TEV protease was used to cleave the His6-tag during overnight dialysis at 4 °C against buffer containing 100 mM Tris-HCl pH 8.0 and 500 mM NaCl. The dialyzed sample was passed through the HisTrap FF crude column to remove His6-tagged TEV protease and uncleaved protein. […]
The maximal control contained no PROTAC, the blank contained no SK-20 and no PROTAC – these were replaced by the appropriate buffer. […] The samples were incubated for 3 h (20 °C, dark) and the signal was detected using the Infinite M1000 plate reader (Tecan). After excitation at 317 nm, emission at 620 and 665 nm was recorded. […]
were determined according to the following equation:
activity (%) = ΔF ∗ 100 = F−Fb ∗ 100 , where Ft is the TR-FRET signal in the absence of any compound (maximal control, 100 % activity), Fb the TR-FRET signal in the absence of the GST -CBP (blank, 0 % activity) and F the TR -FRET signal in the presence of the compound. Dose -response curves were plotted in GraphPad Prism 10.2.3 and fitted with nonlinear regression “log(inhibitor) vs. normalized response – variable slope”, from which IC 50 values were determined. […]

T1 sequence (Q92793 1081-1197): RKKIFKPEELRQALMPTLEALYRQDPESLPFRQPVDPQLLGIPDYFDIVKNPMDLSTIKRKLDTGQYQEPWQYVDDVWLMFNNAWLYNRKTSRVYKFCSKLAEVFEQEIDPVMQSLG
T1 sequence (Q96SW2 318-442): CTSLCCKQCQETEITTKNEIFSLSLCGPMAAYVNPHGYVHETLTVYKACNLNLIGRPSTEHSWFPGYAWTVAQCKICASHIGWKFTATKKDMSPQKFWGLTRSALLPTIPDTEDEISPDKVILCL

ternary complex formation (TR-FRET) (CBP-BRD and CRBN-thalidomide binding domain labeled with TR-FRET pair): robust formation of the ternary complex | PROTAC concentration at peak of hook curve (TR-FRET ternary complex): around 1 μM
Structure (SMILES): Cc1cc2c(NC(=O)c3cc(NC(=O)CCCCCCCCCCNc4cccc5c4C(=O)N(C4CCC(=O)NC4=O)C5=O)cc(-c4ccn(C)n4)c3)cccc2nn1 (centres unmarked) [dCE-2]
